Assay results from patent US7767717B2 (priority 2003, dated 2010).
Where two headings read alike, the source gives them in different places.

Legend:
[1] = cutaneous [^3H]-4-hydroxy tamoxifen delivery in breast cancer patients: radioactivity in breast tissue, blood, urine; conditions: for share of radioactivity in blood: 24 hours after cutaneous 4-hydroxy tamoxifen
Method: (§1) The patients received [^3H]-labeled drug applied directly on the affected breasts at specified intervals ranging from 12 hours to 7 days before surgery to excise diseased tissue. Breast tissue from three regions: the tumor, tissue immediately surrounding the tumor, and normal tissue, was excised and immediately frozen in liquid nitrogen. Additionally, plasma and urine samples were obtained at scheduled intervals and frozen until analysis.

TGF-β1 = conditions: cited from earlier work
[2] = system: p53(−) normal human mammary epithelial cells; conditions: cited from earlier work
[3] = cited from earlier work
[4] = Group 2 (0.5 mg/day gel) on the seventh day; Group 1 (oral tamoxifen 20 mg/day) on the fifth day; cited from earlier work
estrone sulphatase = target: T1, estrone sulphatase (Homo sapiens, UniProt P08842); conditions: mammary cancer cell lines; cited from earlier work
T1 construct: estrone sulphatase activity in mammary cancer cell lines; endogenous in cells
T1 sequence (P08842 22-583): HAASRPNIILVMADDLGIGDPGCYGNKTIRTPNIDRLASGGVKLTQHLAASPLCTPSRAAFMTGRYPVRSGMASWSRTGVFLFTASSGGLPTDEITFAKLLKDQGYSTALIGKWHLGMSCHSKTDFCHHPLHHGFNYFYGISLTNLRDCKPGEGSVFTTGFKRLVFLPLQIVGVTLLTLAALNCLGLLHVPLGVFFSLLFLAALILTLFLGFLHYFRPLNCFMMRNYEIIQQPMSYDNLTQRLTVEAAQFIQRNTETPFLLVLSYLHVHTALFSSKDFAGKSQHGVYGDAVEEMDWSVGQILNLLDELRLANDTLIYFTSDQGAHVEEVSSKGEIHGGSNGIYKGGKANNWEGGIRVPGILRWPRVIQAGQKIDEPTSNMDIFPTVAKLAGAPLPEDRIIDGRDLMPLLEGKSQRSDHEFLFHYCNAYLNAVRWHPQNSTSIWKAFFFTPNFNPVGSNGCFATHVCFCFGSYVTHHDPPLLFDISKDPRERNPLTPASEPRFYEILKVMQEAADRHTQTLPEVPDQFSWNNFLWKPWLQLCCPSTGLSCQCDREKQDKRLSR

keloid fibroblast = conditions: in vitro, cited from earlier work
[5] = human, in vivo
Method: as §1

[6] = human, in vivo; cited from earlier work
[7] = pharmacokinetics of topically applied 4-hydroxy tamoxifen gel in healthy premenopausal women; format: in vivo, human; conditions: last administration, day 25 of second cycle; for t1/2: range
Method: Each participant applied the gel daily for the duration of two menstrual cycles.
At the end of a menstrual cycle, each patient received a single dose, after which serial blood samples were collected at 0, 0.5, 1, 1.5, 2, 3, 4, 6, 12, 18, 24, 36, 48, and 72 hours.
On the first day of the following menstruation, treatment, which consisted of daily application of the gel over two menstrual cycles, began. Blood samples were collected 24 hours following the morning application of gel on days 7, 20 and 25 of the first and second cycles. On the last day of administration, day 25 of the second menstrual cycle, serial blood samples were collected prior to application and at 0.5, 1, 1.5, 2, 3, 4, 6, 12, 18, 24, 36, 48, and 72 hours after application of the gel.

[8] = topical application
[9] = 12 hr after cutaneous Z-[^3H]-4-hydroxy tamoxifen to the affected breast
[10] = 24 hr after cutaneous Z-[^3H]-4-hydroxy tamoxifen to the affected breast
[11] = 36 hr after cutaneous Z-[^3H]-4-hydroxy tamoxifen to the affected breast
[12] = Day 4 after cutaneous Z-[^3H]-4-hydroxy tamoxifen to the affected breast
[13] = Day 7 after cutaneous Z-[^3H]-4-hydroxy tamoxifen to the affected breast

## CC/C(=C(\c1ccc(O)cc1)c1ccc(OCCNC)cc1)c1ccccc1 [N-Desmethyl-4-Hydroxy Tamoxifen]
[1]; [9]
  % Metabolites in Breast Tissue: 2%
[1]
  share of radioactivity in blood: 18%
[1]; [10]
  % Metabolites in Breast Tissue: 4%
[1]; [11]
  % Metabolites in Breast Tissue: 14%
[1]; [12]
  % Metabolites in Breast Tissue: 20%
[1]; [13]
  % Metabolites in Breast Tissue: 16%

## CC/C(=C(\c1ccccc1)c1ccc(OCCN(C)C)cc1)c1ccccc1 [tamoxifen]
TGF-β1
  TGF-β1 expression: downregulating TGF-β1 expression
[1]; cutaneous [^3H]-labeled drug
  time of plateau of radioactivity in blood: 2 days
[1]; cutaneous [^3H]-labeled drug, 80 μCi
  retention in the breast: shorter and far weaker
[2]
  initiation of apoptosis: initiates apoptosis
[3]
  rat liver carcinogenicity: potent rat liver carcinogen
[4]
  side effects reported by one person of the group: hot flashes and mild vaginitis
Estrone sulphatase
  inhibitory effect on estrone sulphatase activity: little or no effect
Keloid fibroblast; keloid fibroblasts
  collagen production: decreases collagen production
Keloid fibroblast
  keloid fibroblast proliferation: inhibits keloid fibroblast proliferation

## CC/C(=C(/c1ccc(O)cc1)c1ccc(OCCN(C)C)cc1)c1ccccc1 (single isomer, unassigned) [E isomer]
[1]; day 7 after cutaneous Z-[^3H]-4-hydroxy tamoxifen
  percentage of isomer in breast tissue radioactivity: 33%

## CC/C(=C(\c1ccc(O)cc1)c1ccc(OCCN(C)C)cc1)c1ccccc1 [Z-4-hydroxy tamoxifen]
[5]
  percentage of isomer in breast tissue radioactivity: 32%

## CCC(=C(c1ccc(O)cc1)c1ccc(OCCN(C)C)cc1)c1ccccc1 [4-hydroxy tamoxifen, 1-[4-(2-N-dimethylaminoethoxy)phenyl]-1-(4-hydroxyphenyl)-2-phenylbut-1-ene]
[6]
  radioactivity in excised tissue and normal breast tissue surrounding the tumor: contained radioactivity
[7]; 0.5 mg/day, 20 mg/100 g gel
  AUC0-24: 0.2563 ± 0.2053 ng·h/mL
  Cav = AUC0-24/24: 0.0107 ± 0.0085 ng/mL
  Cmax: 0.017 ± 0.0085 ng/mL
  tmax: 40 ± 81 h
[7]; 1 mg/day, 20 mg/100 g gel
  AUC0-24: 0.3009 ± 0.1908 ng·h/mL
  Cav = AUC0-24/24: 0.0125 ± 0.0079 ng/mL
  Cmax: 0.021 ± 0.014 ng/mL
  tmax: 24 ± 18 h
[7]; 1 mg/day, 57 mg/100 g gel
  AUC0-24: 0.619 ± 0.466 ng·h/mL
  Cav = AUC0-24/24: 0.0258 ± 0.0194 ng/mL
  Cmax: 0.0351 ± 0.0224 ng/mL
  tmax: 12.8 ± 14.9 h
  t1/2: (58-118) hr
[7]; 2 mg/day, 57 mg/100 g gel
  AUC0-24: 0.998 ± 0.653 ng·h/mL
  Cav = AUC0-24/24: 0.0416 ± 0.0272 ng/mL
  Cmax: 0.0516 ± 0.0317 ng/mL
  tmax: 11.8 ± 12.3 h
  t1/2: (49-101) hr
[3]; in vivo
  rat liver carcinogenicity: not
Estrone sulphatase
  inhibitory effect on estrone sulphatase activity: significant inhibitory effect
[8]
  systemic effects: no detectable laboratory or clinical evidence of systemic effects
[5]
  metabolism in intracellular sites of breast tissue: remained unmetabolized except for limited isomerization from the Z to the E form
  metabolites in the urine: progressive increase of metabolites, mostly N-desmethyl-4-hydroxy tamoxifen and bisphenol
  radioactivity administered that showed in the blood: 0.5%
  share of radioactivity in blood: 68%
  subcellular distribution in breast tissue: concentrated predominantly in the cytosolic and nuclear fractions of breast tissue
  time of plateau of radioactivity in blood: 4 to 6 days

## CC(C)(c1ccc(O)cc1)c1ccc(O)cc1 [Bisphenol]
[1]; [9]
  % Metabolites in Breast Tissue: 1%
[1]
  share of radioactivity in blood: 11%
[1]; [10]
  % Metabolites in Breast Tissue: 2%
[1]; [11]
  % Metabolites in Breast Tissue: 3%
[1]; [12]
  % Metabolites in Breast Tissue: 8%
[1]; [13]
  % Metabolites in Breast Tissue: 8%
